Data on 19 compounds can be found in patent publication US20100205696A1, “NOVEL HERBICIDE RESISTANCE GENE” (UNIVERSITY OF TENNESSEE RESEARCH FOUNDATION, priority 2009, published 2010).

Each structure is given as a SMILES string.

The subject of one assay is PtJBMTm3. Briefly: Radiochemical methyltransferase assay (detoxification activity) with PtJBMTm3. It counts as biochemical. Particulars: 1 mM substrate, 3 μM 14C-SAM, 25° C., 30 min; for Relative assay activity of PtJBMT M3: relative to the activity of PtJBMTm3 with jasmonic acid set as 1. As to the method: (§1) The detoxification activity of PtJBMTm3 was determined using radiochemical methyltransferase assays. The assays were performed with a 50 μL volume containing 50 mM Tris-HCl, pH 7.5, 1 mM of individual auxin mimic herbicides dissolved in water, and 3 μM ^14C—S-Adenosyl methionine (SAM) with a specific activity of 51.4 mCi/mmol (Perkin Elmer, Boston, Mass.). The assay was initiated by addition of SAM, maintained at 25° C. for 30 min, and stopped by addition of […] (150 μL). After phase separation by one min centrifugation at 14,000 g, the upper organic phase was counted using a liquid scintillation counter (Beckman Coulter, Fullerton, Calif.) as previously described (D'Auria et al., 2002). Radioactivity counts in the organic phase indicated the amount of synthesized methyl esters, which are the detoxificated products of individual auxin mimic herbicides. The relative assay activities of PtJBMT and PtJBMTm3 with auxin-based herbicides is illustrated in Table 2 (the activity of PtJBMTm3 with jasmonic acid was set as 1).

Another assay relates to PtJBMT. Briefly: Radiochemical methyltransferase assay (detoxification activity) with PtJBMT. It is filed as biochemical. Particulars: 1 mM substrate, 3 μM 14C-SAM, 25° C., 30 min; relative to the activity of PtJBMTm3 with jasmonic acid set as 1. As to the method:
as §1

Consider `O=C(O)c1nc(Cl)ccc1Cl` [clopyralid], for which the “Relative assay activity of PtJBMT M3” value in the assay on PtJBMTm3 was determined as 94.1%. For the same compound, the “Relative assay activity of PtJBMT” value with PtJBMT was determined as 17.1%.
In the case of `O=C(O)COc1ccc(Cl)cc1Cl` [2,4-D, 2,4-dichlorophenoxyacetic acid], the “Relative assay activity of PtJBMT M3” value in the assay with PtJBMTm3 was 57.5%. In addition, the “Relative assay activity of PtJBMT” value in the assay on PtJBMT worked out at 1.7%.
On the same counts, the results for `O=C(O)CCCc1c[nH]c2ccccc12` [IBA] are 30.3% and 0.8%.
The like results for `O=C(O)Cc1cccc2ccccc12` [NAA] were, in that order, 91.8% and 7.8%.
On the same counts, the results for `O=C(O)c1c(Cl)ccc(Cl)c1Cl` [2,3,6 Trichloro-benzoic acid] are 75.4% and 15.0%.
With `Cc1cc(Cl)ccc1OCCCC(=O)O` [MCPB], the “Relative assay activity of PtJBMT M3” value in the assay with PtJBMTm3 was determined as 11.0%. The “Relative assay activity of PtJBMT” value in the assay with PtJBMT came out at 0.1%.
In the case of `CC(Oc1ccc(Cl)cc1Cl)C(=O)O` (centres unmarked) [dichlorprop], the “Relative assay activity of PtJBMT M3” value with PtJBMTm3 was 73.0%. Further, in the assay with PtJBMT, the “Relative assay activity of PtJBMT” value is 7.3%.
`O=C(O)CCCOc1ccc(Cl)cc1Cl` [2,4-DB]: the “Relative assay activity of PtJBMT M3” value with PtJBMTm3 was found to be 38.7%. Further, the “Relative assay activity of PtJBMT” value in the assay with PtJBMT was 0.5%.
The like results for `CC(C)(Oc1ccc(Cl)cc1)C(=O)O` [PCIB] were, in that order, 96.9% and 8.0%.
On the same counts, the results for `O=C(O)COc1cc(Cl)c(Cl)cc1Cl` [2,4,5-T] are 25.5% and 0.4%.
On the same counts, the results for `O=C(O)Cc1c[nH]c2cccc(Cl)c12` [4-Cl-IAA] are 33.6% and 1.1%.
On to `Nc1c(Cl)c(Cl)nc(C(=O)O)c1Cl` [picloram], for which the “Relative assay activity of PtJBMT M3” value in the assay with PtJBMTm3 is recorded as 78.1%. Moreover, the “Relative assay activity of PtJBMT” value in the assay with PtJBMT worked out at 3.7%.
On the same counts, the results for `Nc1c(Cl)c(F)nc(OCC(=O)O)c1Cl` [fluroxypyr] are 4.2% and 0.6%.
The like results for `O=C(O)c1c(Cl)ccc2cc(Cl)cnc12` [quinclorac] were, in that order, 91.3% and 11.2%.
The like results for `O=C(O)Cc1ccccc1` [PAA] were, in that order, 58.3% and 0.8%.
As for `COc1c(Cl)ccc(Cl)c1C(=O)O` [dicamba], the “Relative assay activity of PtJBMT M3” value in the assay on PtJBMTm3 amounted to 73.9%. In the assay with PtJBMT, the “Relative assay activity of PtJBMT” value was found to be 2.3%.
For `Cc1cc(Cl)ccc1OCC(=O)O` [MCPA], in the assay on PtJBMTm3, the “Relative assay activity of PtJBMT M3” value was 70.0%. The “Relative assay activity of PtJBMT” value in the assay on PtJBMT was found to be 3.5%.
On the same counts, the results for `Cc1cc(Cl)ccc1OC(C)C(=O)O` (centres unmarked) [mecoprop] are 87.5% and 12.8%.
Consider `CC/C=C\C[C@H]1C(=O)CC[C@@H]1CC(=O)O` [Jasmonic acid], for which the “Relative assay activity of PtJBMT M3 (reference, set as 1)” value with PtJBMTm3 (reference value set as 1) turned out to be 1. The “Relative assay activity of PtJBMT” value with PtJBMT was 85.1%.
